The source of these data is patent US10201556B2, “Combination for use in treating diseases or conditions associated with melanoma, or treating diseases or conditions associated with activated B-raf pathway” (InteRNA Technologies B.V., priority 2012, dated 2019).

One data set relates to BCL2. Kind of data set: Western immunoblotting of BCL2 protein levels. It is filed as cell-based, human. The procedure: As control a scrambled miRNA and a non-targeting siRNA pool were included. Proteins were harvested 72 hrs post transfection using RIPA buffer supplemented with HALT™ Phosphatase Inhibitor (Thermo Scientific) and Protease Inhibitor Cocktail (Sigma). […] The membranes were blocked in 5% milk in TBS-T and incubated O/N at 4° C. with primary antibodies to bRAF, total ERK1/2, phosphoERK1/2, CDK4, BCL2 and tubulin (Santa Cruz). After incubation with secondary goat-anti-mouse antibodies (Santa Cruz), membranes were developed using ECL (Pierce).
Proteins were harvested 72 hrs post transfection using RIPA buffer supplemented with HALT™ Phosphatase Inhibitor (Thermo Scientific) and Protease Inhibitor Cocktail (Sigma). […] The membranes were blocked in 5% milk in TBS-T and incubated O/N at 4° C. with primary antibodies to bRAF, total ERK1/2, phosphoERK1/2, CDK4, BCL2 and tubulin (Santa Cruz). After incubation with secondary goat-anti-mouse antibodies (Santa Cruz), membranes were developed using ECL (Pierce).
As control a scrambled miRNA was included. Proteins were harvested 72 hrs post transfection using RIPA buffer supplemented with HALT™ Phosphatase Inhibitor (Thermo Scientific) and Protease Inhibitor Cocktail (Sigma). Fifteen μg protein was loaded on 10% TGX acrylamide gels (Bio-Rad) and subsequently transferred to PVDF membranes. The membranes were blocked in 5% milk in TBS-T and incubated O/N at 4° C. with primary antibodies to bRAF, total ERK1/2, phosphoERK1/2, BCL2, CDK4 and tubulin (Santa Cruz). After incubation with secondary goat-anti-mouse antibodies (Santa Cruz), membranes were developed using ECL (Pierce).
Proteins were isolated using RIPA buffer (50 mM Tris pH 8.0, 150 mM NaCL, 1% NP-40, 0.5% Sodium deoxycholate, 0.1% SDS), supplemented with Protease Inhibitor Cocktail (Sigma) and Halt™ Phosphatase Inhibitor Cocktail (Pierce/Thermo Scientific). […] Membranes were blocked in 5% milk or 5% BSA in TBS-T, and incubated O/N at 4° C. with primary antibodies against α-tubulin (1:5000), BRAF, pERK1/2, CDK4, RRM2 (all 1:1000), BCL-2 (1:500) (Santa Cruz), total-ERK1/2 (1:2000), BIRC5, AURKB (1:1000) (Cell Signaling), ERK1 (1:2000) (GeneTex). After incubation with appropriate secondary antibodies and western blot chemiluminescence substrate ECL (Pierce/Thermo Scientific), membranes were exposed to CL-XPosure Film (Pierce/Thermo Scientific).
A general note: Immunoblotting shows a protein as a band on a membrane.

For data set [1], the system named is RPMI-7951 melanoma cell line. The experiment in a line: Anti-proliferative effect of small molecules, MTS assay. It is filed as cell-based. As to conditions: Homo sapiens. The procedure:
(§1) The anti-proliferative effect of small molecules in melanoma cell lines was determined with V600E BRAF inhibitor, vemurafenib (PLX-4032, 51267, Selleck) and MEK inhibitor, selumetinib (AZD-6244, S1008, Selleck). For each cell line optimal growth conditions were determined prior to the experiment. Cells were plated in a 96-well plate at 3000 cells per well (100 uL) and were grown at 37 C, 5% CO2. Small molecule mix (50 uL per well) was made for each concentration in medium. Cells were treated in triplicate 24 hours after plating. After 72 hours medium was replaced and viability was measured with the MTS assay (Promega) according to manufacturer's instructions. Cell viability inhibition is normalized against loading control (0.1% DMSO) and GraphPad Prism was used to fit the curve and calculate GI50 values.
(Tetrazolium dyes change colour on reduction, which living cells bring about.)

For another data set, the system named is M249 melanoma cell line. The data set is described as above. The class given is cell-based. As to conditions: M249, 72 h, M249, vemurafenib sensitive. The method, then:
as §1

For data set [2], the system named is M249-R4 melanoma cell line. Described as above. It is filed as cell-based. As to conditions: M249-R4 (M249-AR4), in vitro acquired resistance, 72 hours. The procedure:
as §1

The next data set has as its system A2058 melanoma cell line. The data set is described as above. The class given is cell-based. The following applies: Homo sapiens, A2058, intrinsic resistance, 72 hours. The procedure:
as §1

Data set [3] relates to A375Hu melanoma cell line. Described as above. As to conditions: Homo sapiens, A-375, 72 h, A375Hu (A375), vemurafenib sensitive. It is filed as cell-based. The procedure: as §1
Data set [4] deals with BRAFV600E mutant melanoma cell lines SKMEL-28, SKMEL-57 and M249. The experiment in a line: MTS cell viability after miR-3157 mimic transfection, vemurafenib-sensitive lines. The class given is cell-based. The following applies: SKMEL-28, SKMEL-57, M249; 10 nM mimic, 72 hours (FIG. 11a). The method, then:
(§2) miR-3157 broadly affects melanoma cell line viability. Melanoma cell lines were divided into those that have the BRAFV600E mutation and are sensitive (a), intrinsically resistant (b) or acquired resistance to vemurafenib (c). Cell lines were transfected in triplicate with control miRNA or miR-3157 mimics (10 nM; n=2). Mock is transfectant only. Cell viability was determined using the MTS assay and calculated relative to mock transfected cells.
(§3) A375 cells were obtained from the Hubrecht Institute (Utrecht, The Netherlands); SKMEL-28, A2058 and RPMI-7951 were from the ATCC; SKMEL-57 was a gift from Dr. Patricia Groenen (Radboud University Nijmegen Medical Centre, The Netherlands); for cell line characteristics of M249, M249-AR4, M233 and M376 see (Atefi et al. 2011). A375-R, with in vitro acquired resistance to vemurafenib, was established in our lab by clonal selection of cells continually exposed to 1 μM vemurafenib. A375, A375-R, SKMEL-28, A2058 and SKMEL-57 were grown in DMEM GlutaMAX™-I (Gibco®), all other cell lines in RPMI-1640 (Gibco®). Media was supplemented with 10% FBS (Sigma), and cells were maintained in a humidified 37° C. incubator (Thermo Scientific) with 5% CO2. […]
(§4) Cells were seeded in 96-well plates and transfected the next day. […] Read-out was performed at 490 nm on a Multiskan FC plate reader (Thermo Scientific) at 72 hours post transfection.

The test system of data set [5] is A375-R, M249-AR4 and M376. Kind of data set: MTS cell viability after miR-3157 mimic transfection, acquired resistance lines. The class given is cell-based. The following applies: 10 nM mimic, 72 hours (FIG. 11c). The procedure:
as §2, §3, §4

Setting [6] is: A375Hu cells, 72 hrs, Western blot.

Entries after “also recorded” stand apart in the source; their conditions may differ.

As usually defined, the GI50 is the concentration at which growth is held to half of that of the control. Higher therefore signals lower sensitivity of the cells. Consider `CCCS(=O)(=O)Nc1ccc(F)c(C(=O)c2c[nH]c3ncc(-c4ccc(Cl)cc4)cc23)c1F` [Vemurafenib, N-(3-{[5-(4-chlorophenyl)-1H-pyrrolo[2,3-b]pyridin-3-yl]carbonyl}-2,4-difluorophenyl)propane-1-sulfonamide], for which the BCL2 protein levels result in the data set on BCL2 (setting [6]) is “but not CDK4 or BCL2”; with BCL2 (A375Hu cells, 72 hrs, Western blot, listed as PLX-4032), “not in reduction of CDK4 and BCL2 protein levels”. Besides, the cytotoxicity at 3 µM in data set [1] (RPMI-7951, 3 μM vemurafenib (FIG. 15a), read-out: reduction of cell viability) was about 20%. In addition, the GI50 in data set [1] (RPMI-7951, intrinsic resistance, 72 hours, MTS) is over 10 µM; in the data set with M249 melanoma cell line, about 300 nM; in data set [2], over 10 µM; in the data set with A2058 melanoma cell line, over 10 µM; in data set [3] it was about 100 nM.
With “hsa-miR-3157-5p: mature miRNA mimic, SEQ ID NO 6 UUCAGCCAGGCUAGUGCAGUCU (listed as RNA, chemistry not given here)”, the BCL2 protein levels entry is reported as “significant reduction in BCL2 protein levels; also recorded: down-regulated” with BCL2 (setting [6]); “strong reduction” with BCL2 (A375 cells, increasing concentrations of mimic (FIG. 12c)); “no effect” with BCL2 (A2058, M249, M249-AR4 and M376, increasing concentrations of mimic (FIG. 14a)); “reduction; also recorded: down-regulated” in the data set with BCL2 (A2058 cells (vemurafenib resistant), 72 hrs post transfection, Western blot). Further, the results for the “cell viability relative to mock transfected cells” value in data set [4] and in data set [5] were “strongly reduced cell viability” and “reduced viability”, respectively.
